# Source: patent publication US12514858B2, “CD38 inhibitors” (Astellas Engineered Small Molecules US, Incorporated, priority 2020, dated 2026)
# Several values for one entry are separate records, joined by “and”; a condition that tells them apart may be missing. Identical values can stand only once.
# Target: Human CD38 (Homo sapiens (Human), UniProt P28907)
# Experiment: Determination of IC50 against human CD38 (CD38 Inhibitor Screening Assay Kit, glycohydrolase activity, fluorescence)
# Assay type: biochemical
# Details: CD38 hydrolase enzyme, 30 min preincubation at room temperature, F-NAD substrate, excitation 300 nm, emission 410 nm; read-out: hCD38 IC50
# Procedure: CD38 hydrolase buffer (4×) was thawed on ice and 1×CD38 hydrolase buffer was prepared by diluting 4×CD38 hydrolase buffer with water. CD38 hydrolase enzyme was diluted to […] with 1×CD38 hydrolase buffer (10 ng/well). Master mix was prepared by mixing equal volumes of water and CD38 hydrolase buffer (4×) and 10 μl of the mix was added to all the wells. Following master mix addition, 10 μl of the inhibitors and 20 μl of CD38 hydrolase enzyme were added to the wells. For wells designated blank, 10 μl and 20 μl of 1× CD38 hydrolase buffer was added respectively in place of […]. The plate was covered and incubated 30 min at room temperature with slow shaking at 400 rpm. After 30 min incubation, the plate was removed and 10 μl of diluted F-NAD substrate was added to all the wells. The plate is incubated for 10 min, spun at 1200 rpm for 30 secs to remove bubbles and read in Tecan Spark using a fluorometer setting of excitation 300 nm and emission 410 nm. The reading for the blank was subtracted from all the values. IC50 for the test compounds were determined by using Graphpad prism software v7.0.
# Human CD38, sequence (P28907 whole entry): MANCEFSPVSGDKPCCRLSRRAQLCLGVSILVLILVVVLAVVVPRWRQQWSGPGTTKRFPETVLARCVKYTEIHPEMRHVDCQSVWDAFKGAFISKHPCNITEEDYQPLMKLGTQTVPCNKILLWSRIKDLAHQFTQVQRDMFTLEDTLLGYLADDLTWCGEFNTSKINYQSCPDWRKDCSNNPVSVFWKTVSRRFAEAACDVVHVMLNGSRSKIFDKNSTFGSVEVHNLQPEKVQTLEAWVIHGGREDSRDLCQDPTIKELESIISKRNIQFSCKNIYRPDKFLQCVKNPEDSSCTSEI
row,Structure (SMILES),IC50
1,"COCCO[C@H]1CC[C@H](NC(=O)c2cc(C(N)=O)nc(-n3ccnc3)n2)CC1 [Ex. 48, 2-(1H-imidazol-1-yl)-N-((1r,4r)-4-(2-methoxyethoxy)cyclohexyl)pyrimidine-4,6-dicarboxamide]",18 nM
2,"COCCO[C@H]1CC[C@H](NC(=O)c2cc(CO)nc(-n3ccnc3)n2)CC1 [Ex. 49, 6-(hydroxymethyl)-2-(1H-imidazol-1-yl)-N-((1r,4r)-4-(2-methoxyethoxy)cyclohexyl)pyrimidine-4-carboxamide]",15 nM
3,"[2H]c1nc([2H])n(-c2nc(C)cc(C(=O)N[C@H]3CC[C@H](OCCOC)CC3)n2)c1[2H] [Ex. 50, 2-(1H-imidazol-1-yl-d3)-N-((1r,4r)-4-(2-methoxyethoxy)cyclohexyl)-6-methylpyrimidine-4-carboxamide]",14 nM
4,"COCCO[C@H]1CC[C@H](NC(=O)c2cc(CF)nc(-n3ccnc3)n2)CC1 [Ex. 51, 6-(fluoromethyl)-2-(1H-imidazol-1-yl)-N-((1r,4r)-4-(2-methoxyethoxy)cyclohexyl)pyrimidine-4-carboxamide]",17 nM
5,"COCCO[C@H]1CC[C@H](NC(=O)c2cc(C(F)F)nc(-n3ccnc3)n2)CC1 [Ex. 52, 6-(Difluoromethyl)-2-(1H-imidazol-1-yl)-N-((1r,4r)-4-(2-methoxyethoxy)cyclohexyl)pyrimidine-4-carboxamide]",89 nM
6,"COCCO[C@H]1CC[C@H](NC(=O)c2cc(C3CC3)nc(-n3ccnc3)n2)CC1 [Ex. 56, 6-cyclopropyl-2-(1H-imidazol-1-yl)-N-((1r,4r)-4-(2-methoxyethoxy)cyclohexyl) pyrimidine-4-carboxamide]",50 nM
7,"C=Cc1cc(C(=O)N[C@H]2CC[C@H](OCCOC)CC2)nc(-n2ccnc2)c1 [Ex. 57, 6-(1H-imidazol-1-yl)-N-((1r,4r)-4-(2-methoxyethoxy)cyclohexyl)-4-vinylpicolinamide]",40 nM
8,"COCCO[C@H]1CC[C@H](NC(=O)c2cc(C(F)F)cc(-n3ccnc3)n2)CC1 [Ex. 59, 4-(difluoromethyl)-6-(1H-imidazol-1-yl)-N-((1r,4r)-4-(2-methoxyethoxy)cyclohexyl)picolinamide]",20.9 nM
9,"COCCO[C@H]1CC[C@H](NC(=O)c2cc(OC)cc(-n3ccnc3)n2)CC1 [Ex. 62, 6-(1H-imidazol-1-yl)-4-methoxy-N-((1r,4r)-4-(2-methoxyethoxy)cyclohexyl) picolinamide]",86.7 nM

# Continued, values first:
row,IC50,Structure (SMILES)
1,16.6 nM and 8.8 nM,"CCS(=O)(=O)N[C@H]1CC[C@H](NC(=O)c2ccnc(-n3ccnc3)n2)CC1 [Ex. 53, N-((1r,4r)-4-(ethylsulfonamido)cyclohexyl)-2-(1H-imidazol-1-yl)pyrimidine-4-carboxamide]"
2,28 nM,"CO[C@]1(C)CC[C@@H](NC(=O)c2ccnc(-n3ccnc3)n2)CC1 [Ex. 54, 2-(1H-imidazol-1-yl)-N-((1r,4r)-4-methoxy-4-methylcyclohexyl)pyrimidine-4-carboxamide]"
3,16.5 nM,"CCO[C@H]1CC[C@H](NC(=O)c2ccnc(-n3ccnc3)n2)CC1 [Ex. 58, N-((1r,4r)-4-ethoxycyclohexyl)-2-(1H-imidazol-1-yl)pyrimidine-4-carboxamide]"
4,2.4 nM,"COCCO[C@H]1CC[C@@H](NC(=O)c2cc(C)nc(-n3ccnc3)n2)CC1 [Ex. 60, 2-(1H-imidazol-1-yl)-N-((1s,4s)-4-(2-methoxyethoxy)cyclohexyl)-6-methylpyrimidine-4-carboxamide]"
5,227 nM,"COCCO[C@H]1C[C@H](NC(=O)c2ccnc(-n3ccnc3)n2)C1 [Ex. 65, 2-(1H-imidazol-1-yl)-N-((1r,3r)-3-(2-methoxyethoxy)cyclobutyl)pyrimidine-4-carboxamide]"
